Measurements reported in patent US4002623A, “Anti-inflammatory 1-[3-(dialkylamino)propyl]-2-acylaminobenzimidazoles and 2-acylamino-3-[3-(dialkylamino)-propyl]imidazo[4,5-b]pyridines” (Pfizer Inc., priority 1974, dated 1977).
Like-named read-outs stand apart in the source and are kept apart here.

Assay: adjuvant arthritis screen (Walz et al.), swelling of the non-injected left hind foot on Day 16
Assay type: in vivo, male inbred Lewis rats
Conditions: Rattus norvegicus, 384 h, daily day -1 through day 15, read-out: Activity Percent Inhibition; for inhibition in vivo at 20 mg/kg: 20 mg./kg. po; for inhibition in vivo at 33 mg/kg: 33 mg./kg. ip
Description: The adjuvant arthritis test described by Walz et al., Ann. Rheum. Dis., 30, 303 (1971) was selected as the method of choice for the determination of the extent of which the novel compounds of the present invention are therapeutically effective as anti-inflammatory agents. Adjuvant arthritis is a crippling deformity in rats resulting from diffuse connective tissue involvement. It is considered by some authorities to be the best available experimental animal model of human rheumatoid arthritis because of its strong clinical and pathological similarities to the human disease and because it can be effectively treated with known anti-arthritic drugs. In this test, lesions resembling those of human rheumatoid arthritis are induced by the injection of complete Freund's adjuvant into one hind leg of a rat. A vigorous inflammatory response occurs in the injected hind leg and reaches its greatest size in about four days. This primary response is followed by the development of a second inflammatory response, appearing about 12-16 days post-injection, that occurs in the uninjected hind leg. While the compounds of the invention are capable of inhibiting the degree of inflammation in both legs, the inhibition of swelling in the uninjected leg at 16 days is considered to be the more meaningful measure of antiarthritic activity.
The adjuvant arthritis screen as described by Walz et al. (Ann. Rheum. Dis., 30: 303 (1971), was used to evaluate the above prepared compounds.
The screen is conducted using male inbred Lewis rats weighing approximately 250 gm. The animals are dosed with drug beginning on day- 1 and continuing daily through day 15. On Day 0, the subplanter surface of the right hind paw is injected with 0.1cc of a 1% suspension of Mycobacterium butyricum (Freunds adjuvant) in Primol (Esso). The swelling of the non-injected left hind foot on Day 16, resulting from immune response to adjuvant, was determined for dosed animals and controls. The foot volume is measured by immersing the paw to the anatomical hairline into a mercury reservoir which is connected to a Statham pressure transducer and a recording device. The results are expressed as % inhibition calculated according to the following equation: [formula] The results obtained are as follows for [drawing 22] where Z is --N(CH3)2 and X is carbon: […]

Cc1ccc2c(c1)nc(NC(=O)c1ccc(Cl)cc1)n2CCCN1CCN(C)CC1 [4-Chlorophenyl; CH3; H; drawing 24]
inhibition in vivo at 20 mg/kg: 27%

CN1CCN(CCCn2c(NC(=O)c3ccc(Cl)cc3)nc3cc(Cl)ccc32)CC1 [4-Chlorophenyl; Cl; H; drawing 24]
inhibition in vivo at 10 mg/kg (10 mg./kg. po): -10%
inhibition in vivo at 33 mg/kg: 63%

CN(C)CCCn1c(NC(=O)c2ccc(Cl)cc2)nc2ccccc21 [4-Chlorophenyl; H; H; Z = N(CH3)2, 1-[3-(dimethylamino)propyl]-2-(4-chlorobenzamido)-benzimidazole]
inhibition in vivo at 10 mg/kg (10 mg./kg. ip): 27%
inhibition in vivo at 33 mg/kg: 51%

O=C(Nc1nc2ccccc2n1CCCN1CCOCC1)c1ccc(Cl)cc1 [4-Chlorophenyl; H; H; drawing 23]
inhibition in vivo at 33 mg/kg: 15%

CN1CCN(CCCn2c(NC(=O)c3ccc(Cl)cc3)nc3ccccc32)CC1 [4-Chlorophenyl; H; H; drawing 24]
inhibition in vivo at 33 mg/kg: 43%

CN1CCN(CCCn2c(NC(=O)c3ccc(Cl)cc3)nc3cccnc32)CC1 [4-Chlorophenyl; H; H; drawing 25]
inhibition in vivo at 20 mg/kg: 26%

O=C(Nc1nc2ccccc2n1CCCN1CCCCC1)c1ccc(Cl)cc1 [4-Chlorophenyl; H; H; drawing 26]
inhibition in vivo at 33 mg/kg: 46%

CN1CCN(CCCn2c(NC(=O)c3ccc(Cl)cc3)nc3cc(S(=O)(=O)N(C)C)ccc32)CC1 [4-Chlorophenyl; SO2 N(CH3)2; H; drawing 24]
inhibition in vivo at 20 mg/kg: 18%

CN1CCN(CCCn2c(NC(=O)C=Cc3ccc(Cl)cc3)nc3cc(C(F)(F)F)ccc32)CC1 [4-Chlorostyryl; CF3; H; drawing 24]
inhibition in vivo at 20 mg/kg: 6%

Cc1ccc2c(c1)nc(NC(=O)C=Cc1ccc(Cl)cc1)n2CCCN1CCN(C)CC1 [4-Chlorostyryl; CH3; H; drawing 24, 1-[3-(4-methyl-1-piperazinyl)propyl]-2-(p-chlorocinnamido)-5-methylbenzimidazole]
inhibition in vivo at 20 mg/kg: 39%

CN1CCN(CCCn2c(NC(=O)C=Cc3ccc(Cl)cc3)nc3cc(Cl)ccc32)CC1 [4-Chlorostyryl; Cl; H; drawing 24]
inhibition in vivo at 33 mg/kg: 66%

CN(C)CCCn1c(NC(=O)C=Cc2ccc(Cl)cc2)nc2ccccc21 [4-Chlorostyryl; H; H; Z = N(CH3)2]
inhibition in vivo at 33 mg/kg: 33%

COc1ccc2c(c1)nc(NC(=O)C=Cc1ccc(Cl)cc1)n2CCCN1CCN(C)CC1 [4-Chlorostyryl; OCH3; H; drawing 24]
inhibition in vivo at 10 mg/kg (10 mg./kg. po): 47%

COc1ccc(C(=O)Nc2nc3cc(Cl)ccc3n2CCCN2CCN(C)CC2)cc1 [4-Methoxyphenyl; Cl; H; drawing 24]
inhibition in vivo at 33 mg/kg: 46%

COc1ccc(C(=O)Nc2nc3ccc(C)cc3n2CCCN2CCN(C)CC2)cc1 [4-Methoxyphenyl; H; CH3; drawing 24]
inhibition in vivo at 20 mg/kg: 22%

COc1ccc(C(=O)Nc2nc3ccccc3n2CCCN(C)C)cc1 [4-Methoxyphenyl; H; H; Z = N(CH3)2, 1-[3-(dimethylamino)propyl]-2-(4-methyoxybenzamido-)benzimidazole]
inhibition in vivo at 10 mg/kg (10 mg./kg. po): 12%
inhibition in vivo at 33 mg/kg: 59%

COc1ccc(C(=O)Nc2nc3ccccc3n2CCCN2CCOCC2)cc1 [4-Methoxyphenyl; H; H; drawing 23]
inhibition in vivo at 33 mg/kg: 54%

COc1ccc(C(=O)Nc2nc3ccccc3n2CCCN2CCN(C)CC2)cc1 [4-Methoxyphenyl; H; H; drawing 24]
inhibition in vivo at 33 mg/kg: 27%

COc1ccc(C(=O)Nc2nc3cccnc3n2CCCN2CCN(C)CC2)cc1 [4-Methoxyphenyl; H; H; drawing 25]
inhibition in vivo at 20 mg/kg: 5%

COc1ccc(C(=O)Nc2nc3ccccc3n2CCCN2CCN(Cc3ccccc3)CC2)cc1 [4-Methoxyphenyl; H; H; drawing 27]
inhibition in vivo at 10 mg/kg (10 mg./kg. ip): 32%

COc1ccc(C(=O)Nc2nc3cc(S(=O)(=O)N(C)C)ccc3n2CCCN2CCN(C)CC2)cc1 [4-Methoxyphenyl; SO2 N(CH3)2; H; drawing 24]
inhibition in vivo at 20 mg/kg: 27%

CN1CCN(CCCn2c(NC(=O)c3ccc(C(F)(F)F)cc3)nc3cc(C(F)(F)F)ccc32)CC1 [4-Trifluoromethylphenyl; CF3; H; drawing 24]
inhibition in vivo at 10 mg/kg (10 mg./kg. po): 28%
inhibition in vivo at 33 mg/kg: 71%

Cc1ccc2c(c1)nc(NC(=O)c1ccc(C(F)(F)F)cc1)n2CCCN1CCN(C)CC1 [4-Trifluoromethylphenyl; CH3; H; drawing 24]
inhibition in vivo at 20 mg/kg: 35%

CN1CCN(CCCn2c(NC(=O)c3ccc(C(F)(F)F)cc3)nc3cc(Cl)ccc32)CC1 [4-Trifluoromethylphenyl; Cl; H; drawing 24, 1-[3-(4-methyl-1-piperazinyl)propyl]-2-(4-trifluoromethylbenzamido)-5-chlorobenzimidazole]
inhibition in vivo at 10 mg/kg (10 mg./kg. po): 38%
inhibition in vivo at 33 mg/kg: 72%

Cc1ccc2nc(NC(=O)c3ccc(C(F)(F)F)cc3)n(CCCN3CCN(C)CC3)c2c1 [4-Trifluoromethylphenyl; H; CH3; drawing 24]
inhibition in vivo at 20 mg/kg: 50%

O=C(Nc1nc2ccccc2n1CCCN1CCOCC1)c1ccc(C(F)(F)F)cc1 [4-Trifluoromethylphenyl; H; H; drawing 23]
inhibition in vivo at 33 mg/kg: 35%

CN1CCN(CCCn2c(NC(=O)c3ccc(C(F)(F)F)cc3)nc3ccccc32)CC1 [4-Trifluoromethylphenyl; H; H; drawing 24]
inhibition in vivo at 20 mg/kg: 51%
inhibition in vivo at 33 mg/kg: 77%

CN1CCN(CCCn2c(NC(=O)c3ccc(C(F)(F)F)cc3)nc3cccnc32)CC1 [4-Trifluoromethylphenyl; H; H; drawing 25]
inhibition in vivo at 20 mg/kg: 14%

O=C(Nc1nc2ccccc2n1CCCN1CCCCC1)c1ccc(C(F)(F)F)cc1 [4-Trifluoromethylphenyl; H; H; drawing 26, 1-[3-(1-piperidinyl)propyl]-2-(4-trifluoromethylbenzamido)benzimidazole]
inhibition in vivo at 33 mg/kg: 79%

O=C(Nc1nc2ccccc2n1CCCN1CCN(Cc2ccccc2)CC1)c1ccc(C(F)(F)F)cc1 [4-Trifluoromethylphenyl; H; H; drawing 27, 2-(4-trifluoromethylbenzamido)-1-[3-(4-benzyl-1-piperazinyl)-propyl]benzimidazole]
inhibition in vivo at 10 mg/kg (10 mg./kg. ip): 47%

O=C(Nc1nc2ccccc2n1CCCN1CCNCC1)c1ccc(C(F)(F)F)cc1 [4-Trifluoromethylphenyl; H; H; drawing 28, 2-(4-trifluoromethylbenzamido)-1-[3-(1-piperazinyl)propyl]benzimidazole]
inhibition in vivo at 10 mg/kg (10 mg./kg. ip): 28%

COc1ccc2c(c1)nc(NC(=O)c1ccc(C(F)(F)F)cc1)n2CCCN1CCN(C)CC1 [4-Trifluoromethylphenyl; OCH3; H; drawing 24]
inhibition in vivo at 33 mg/kg: 69%

CN1CCN(CCCn2c(NC(=O)c3ccc(C(C)(C)C)cc3)nc3ccccc32)CC1 [4-t-Butylphenyl; H; H; drawing 24]
inhibition in vivo at 33 mg/kg: 26%

CC(C)(C)CC(=O)Nc1nc2ccccc2n1CCCN1CCOCC1 [(CH3)3 CCH2; H; H; drawing 23]
inhibition in vivo at 33 mg/kg: 13%

CCCCCCCCCC(=O)Nc1nc2ccccc2n1CCCN1CCN(C)CC1 [CH3 (CH2)8; H; H; drawing 24]
inhibition in vivo at 20 mg/kg: 45%

COCC(=O)Nc1nc2ccccc2n1CCCN(C)C [CH3 OCH2; H; H; Z = N(CH3)2]
inhibition in vivo at 33 mg/kg: 32%

COCC(=O)Nc1nc2ccccc2n1CCCN1CCOCC1 [CH3 OCH2; H; H; drawing 23]
inhibition in vivo at 33 mg/kg: 21%

CN1CCN(CCCn2c(NC(=O)C3CCC3)nc3ccccc32)CC1 [Cyclobutyl; H; H; drawing 24]
inhibition in vivo at 33 mg/kg: 34%
